Measurements taken from ChEMBL document CHEMBL1275493, “Anti-human immunodeficiency virus type 1 activities of antimicrobial peptides derived from human and bovine cathelicidins” (Antimicrob Agents Chemother, 2008).
Peptide text beside a SMILES is read from it.

Legend:
[1] = test system: Human immunodeficiency virus 1; test: Antiviral activity against Human immunodeficiency virus 1 3B infected in CEM-SS cells; format: functional, organism-based
CEM-SS = test: Cytotoxicity against Human immunodeficiency virus 1 3B infected human CEM-SS cells; format: functional; settings: read-out: TC50 (the source's name)
[2] = Therapeutic index, TC50 for Human immunodeficiency virus 1 3B infected human CEM-SS cells to EC50 for immunodeficiency virus 1 3B; format: cell-based; settings: CEM-SS cells infected with HIV-1 3B, read-out: TI

| EC50 [1] [µM] | Compound | CC50 (CEM-SS) [µM] | selectivity ratio [2] |
| --- | --- | --- | --- |
| 0.98 | CC[C@H](C)[C@H](NC(=O)[C@H](CCCNC(=N)N)NC(=O)[C@H](CCC(N)=O)NC(=O)[C@@H](NC(=O)[C@@H](NC(=O)[C@H](CCCNC(=N)N)NC(=O)[C@H](CCCCN)NC(=O)[C@H](Cc1ccccc1)NC(=O)CN)[C@@H](C)CC)C(C)C)C(=O)N[C@@H](CCCCN)C(=O)N[C@@H](CC(=O)O)C(=O)N[C@@H](Cc1ccccc1)C(=O)N[C@@H](CC(C)C)C(=O)N[C@@H](CCCNC(=N)N)C(=O)N[C@@H](CC(N)=O)C(=O)N[C@@H](CC(C)C)C(=O)N[C@H](C(=O)O)C(C)C | 8.9 | 9.1 |
| 1.08 | CC[C@H](C)[C@H](NC(=O)CN)C(=O)N[C@@H](CCCCN)C(=O)N[C@@H](CCC(=O)O)C(=O)N[C@@H](Cc1ccccc1)C(=O)N[C@@H](CCCCN)C(=O)N[C@@H](CCCNC(=N)N)C(=O)N[C@H](C(=O)N[C@H](C(=O)N[C@@H](CCC(N)=O)C(=O)N[C@@H](CCCNC(=N)N)C(=O)N[C@H](C(=O)N[C@@H](CCCCN)C(=O)N[C@@H](CC(=O)O)C(=O)N[C@@H](Cc1ccccc1)C(=O)N[C@@H](CC(C)C)C(=O)N[C@@H](CCCNC(=N)N)C(=O)N[C@@H](CC(N)=O)C(=O)N[C@@H](CC(C)C)C(=O)N[C@H](C(=O)O)C(C)C)[C@@H](C)CC)C(C)C)[C@@H](C)CC (H-GIKEFKRIVQRIKDFLRNLV-OH) | 22.7 | 21 |
| 0.35 | CC[C@H](C)[C@H](NC(=O)[C@H](CCCCN)NC(=O)[C@H](CCCCN)NC(=O)[C@H](Cc1ccccc1)NC(=O)[C@H](CC(C)C)NC(=O)[C@H](CCCCN)NC(=O)[C@H](CCCCN)NC(=O)[C@H](Cc1ccccc1)NC(=O)[C@H](CCCCN)NC(=O)[C@H](CCCCN)NC(=O)[C@H](CCCNC(=N)N)NC(=O)[C@H](Cc1ccccc1)NC(=O)[C@H](CCCNC(=N)N)NC(=O)[C@H](CCCCN)NC(=O)[C@H](Cc1ccccc1)NC(=O)[C@H](CCCNC(=N)N)NC(=O)CN)C(=O)N[C@@H](CO)C(=O)O (H-GRFKRFRKKFKKLFKKIS-OH) | 8.45 | 24.1 |
| 3.2 | CC[C@H](C)[C@H](NC(=O)[C@H](CCCCN)NC(=O)[C@H](CCCCN)NC(=O)[C@H](Cc1ccccc1)NC(=O)[C@H](CC(C)C)NC(=O)[C@H](CCCCN)NC(=O)[C@H](CCCCN)NC(=O)[C@H](Cc1ccccc1)NC(=O)[C@@H]1CCCN1C(=O)[C@H](CCCCN)NC(=O)[C@H](CCCNC(=N)N)NC(=O)[C@H](Cc1ccccc1)NC(=O)[C@H](CCCNC(=N)N)NC(=O)[C@H](CCCCN)NC(=O)[C@H](Cc1ccccc1)NC(=O)[C@H](CCCNC(=N)N)NC(=O)CN)C(=O)N[C@@H](CO)C(=O)O (H-GRFKRFRKPFKKLFKKIS-OH) | 18.9 | 5.9 |
| 1.6 | CC[C@H](C)[C@H](NC(=O)CN)C(=O)N[C@@H](CCCCN)C(=O)N[C@@H](CCC(=O)O)C(=O)N[C@@H](Cc1ccccc1)C(=O)N[C@@H](CCCCN)C(=O)N[C@@H](CCCNC(=N)N)C(=O)N[C@@H](CCC(=O)O)C(=O)N[C@@H](Cc1ccccc1)C(=O)N[C@@H](CCC(N)=O)C(=O)N[C@@H](CCCNC(=N)N)C(=O)N[C@H](C(=O)N[C@@H](CCCCN)C(=O)N[C@@H](CC(=O)O)C(=O)N[C@@H](Cc1ccccc1)C(=O)N[C@@H](CC(C)C)C(=O)N[C@@H](CCCNC(=N)N)C(=O)N[C@@H](CC(N)=O)C(=O)N[C@@H](CC(C)C)C(=O)N[C@H](C(=O)O)C(C)C)[C@@H](C)CC (H-GIKEFKREFQRIKDFLRNLV-OH) | – | 6.2 |
| 10.8 | CC[C@H](C)[C@H](NC(=O)[C@H](CCCCN)NC(=O)[C@H](CCC(=O)O)NC(=O)[C@H](CCCCN)NC(=O)[C@@H](N)CO)C(=O)NCC(=O)N[C@@H](CCCCN)C(=O)N[C@@H](CCC(=O)O)C(=O)N[C@@H](Cc1ccccc1)C(=O)N[C@@H](CCCCN)C(=O)N[C@@H](CCCNC(=N)N)C(=O)N[C@H](C(=O)N[C@H](C(=O)N[C@@H](CCC(N)=O)C(=O)N[C@@H](CCCNC(=N)N)C(=O)N[C@H](C(=O)N[C@@H](CCCCN)C(=O)N[C@@H](CC(=O)O)C(=O)N[C@@H](Cc1ccccc1)C(=O)N[C@@H](CC(C)C)C(=O)N[C@@H](CCCNC(=N)N)C(=O)O)[C@@H](C)CC)C(C)C)[C@@H](C)CC (H-SKEKIGKEFKRIVQRIKDFLR-OH) | 22.5 | 2.08 |
